Test results taken from patent US12570612B2, “Substituted nitrogen heterocyclic compound and anesthetic effect thereof” (priority 2019, dated 2026).

How the values were obtained:
Format in all cases: in vivo
Sprague-Dawley rats [1] = assay: animal or person; details: rats; for ED50: Rattus norvegicus, LORR, up and down method, tail vein, class symbols, read-out: ED50
Description: Evaluating indicator: The end point of anesthesia: LORR was used as the end point of anesthesia; General anesthesia effect: the disappearance of forepaw righting reflex in rats lasting for 30 seconds is taken as the index of general anesthesia effect; Anesthesia recovery index: the recovery of rat forepaw righting reflex was used as the index of anesthesia recovery.

Sprague-Dawley rats [2] = assay: Pharmacological effect and adverse reactions under the equivalent dose (2ED50), Group C compounds; details: for Righting reflex duration / Sedation duration / Onset time: 2ED50, tail vein, rats, n=8; for Adverse reaction: Convulsions / Adverse reaction: Cough, broken-winded / Adverse reaction: Euphoria / Adverse reaction: Red urine / Adverse reaction: Slower breathing, Tetany convulsion / Adverse reaction: Systemic stiffness, Convulsions, Opisthotonus / Adverse reaction: Tongue stretching / Adverse reaction: Tremor / Adverse reaction: the four limbs rigidity: equivalent dose (2ED50), number of rats of n = 8
Description: Evaluation index: onset time: from the completion of drug injection to the disappearance of forepaw righting reflex in rats; Duration of anesthesia: the time from the disappearance of rat forepaw righting reflex to the recovery of rat forepaw righting reflex; Recovery time of anesthesia: the time from the […] to complete recovery;

Sprague-Dawley rats [3] = details: tail vein

| Compound | ED50 (Sprague-Dawley rats [1]) | Approximate therapeutic index (Sprague-Dawley rats [1]) | Righting reflex duration (Sprague-Dawley rats [2]) | Sedation duration (Sprague-Dawley rats [2]) | Onset time (Sprague-Dawley rats [2]; unit min) | Adverse reaction: Convulsions (Sprague-Dawley rats [2]) | Adverse reaction: Cough, broken-winded (Sprague-Dawley rats [2]) | Adverse reaction: Euphoria (Sprague-Dawley rats [2]) | Adverse reaction: Red urine (Sprague-Dawley rats [2]) | Adverse reaction: Slower breathing, Tetany convulsion (Sprague-Dawley rats [2]) | Adverse reaction: Systemic stiffness, Convulsions, Opisthotonus (Sprague-Dawley rats [2]) | Adverse reaction: Tongue stretching (Sprague-Dawley rats [2]) | Adverse reaction: Tremor (Sprague-Dawley rats [2]) | Adverse reaction: the four limbs rigidity (Sprague-Dawley rats [2]) | Minimal lethal dose (Sprague-Dawley rats [3]) | Onset time (Sprague-Dawley rats [2]; unit s) |
| --- | --- | --- | --- | --- | --- | --- | --- | --- | --- | --- | --- | --- | --- | --- | --- | --- |
| CC#CCC(=O)c1cncn1[C@H](C)c1ccccc1 [Compound C57] | 2 to 10 mg/kg | >16.6 | 1.89 ± 0.29 min | 6.12 ± 1.14 min | <60 s | 0 | 0 | 0 | 8 | 0 | 0 | 2 | 1 | 0 | >13.61 mg/kg |  |
| CC1OC1C(=O)c1cncn1[C@H](C)c1ccccc1 (stereo partly shown) [Compound C56] | 2 to 10 mg/kg | >16.6 | 1.49 ± 0.62 min | 5.32 ± 1.21 min | <60 s | 0 | 0 | 0 | 8 | 0 | 0 | 1 | 1 | 0 | >13.61 mg/kg |  |
| CC(=O)COCC(=O)c1cc(F)nn1[C@H](C)c1ccccc1 [Compound C16] | 2 to 10 mg/kg |  | 2.26 ± 0.81 min | 4.89 ± 0.98 min |  | 0 | 0 | 0 | 8 | 0 | 0 | 1 | 2 | 4 | >17.0 mg/kg | <30 s |
| C#CCOCC(=O)c1c(F)ncn1[C@H](C)c1ccccc1 [Compound C73] | 0.04 to 0.5 mg/kg | >23.4 | 1.24 ± 0.56 min | 6.76 ± 1.49 min |  | 0 | 0 | 0 | 8 | 0 | 2 | 0 | 0 | 1 | >4.0 mg/kg | <30 s |
| CC(=O)COCC(=O)c1cncn1[C@H](C)c1ccccc1 [Compound C51] | 1 to 2 mg/kg | >8.3 | 2.89 ± 0.68 min | 4.62 ± 1.02 min |  | 0 | 0 | 0 | 8 | 0 | 0 | 0 | 2 | 0 | >12.5 mg/kg | <30 s |
| C[C@H](c1ccccc1)n1cncc1C(=O)COC1CCC1 [Compound C28] |  | >2.4 | 1.91 ± 0.65 min | 5.63 ± 0.62 min |  | 0 | 0 | 0 | 8 | 0 | 0 | 0 | 1 | 0 | >11.8 mg/kg | <30 s |
